These are literature values, as cited in patent publication US20130202650A1, “TOPICAL COMPOSITION COMPRISING A COMBINATION OF AT LEAST TWO PENETRATION ENHANCING AGENTS” (Moberg Derma AB, priority 2008, published 2013).

Molecules are shown by their SMILES. Counter-ions that a name gives are not always drawn.

The conditions of the data set: tBtOH-IPM (2:8) vehicle; mouse.

Regarding `CN1[C@@H]2CC[C@H]1C[C@@H](OC(c1ccccc1)c1ccccc1)C2` [BZ mesylate, benztropine], the BZ flux from the mesylate salt was 2020 µg/cm²/h; the “BZ flux, fold greater than from water” value was 100 fold; the “BZ flux, fold greater than the individual neat solvents” value is reported as 44-540 fold.
